Measurements: ChEMBL document CHEMBL1134947, “A mechanism-based probe for gp120-Hydrolyzing antibodies” (Bioorg Med Chem Lett, 2002)
Square brackets hold non-standard residues; d marks the D form. Peptide text beside a SMILES is read from it. * marks the point of attachment. X2 = N=C(N)c1ccc(C(N*)P(=O)(Oc2ccccc2)Oc2ccccc2)cc1; X1 = O=C(CCCCC1SCC2NC(=O)NC21)NCCNC(=O)CCS*; Mpa = O=C(O)CCS

Molecular target: T1, Serine protease 1 (Bos taurus, UniProt P00760)
T1 sequence (P00760 whole entry): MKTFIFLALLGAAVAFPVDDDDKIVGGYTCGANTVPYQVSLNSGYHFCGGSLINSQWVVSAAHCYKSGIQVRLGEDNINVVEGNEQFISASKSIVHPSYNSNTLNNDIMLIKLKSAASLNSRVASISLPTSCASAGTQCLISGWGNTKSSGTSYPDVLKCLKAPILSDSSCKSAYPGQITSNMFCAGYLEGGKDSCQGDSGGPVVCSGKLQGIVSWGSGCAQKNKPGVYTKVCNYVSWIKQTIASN
Assay: Concentration required for the inhibition of catalytic activity of bovine trypsin

Row | Structure (SMILES) | IC50
1 | N=C(N)c1ccc(C(NC(=O)CCSSCCC(=O)NCCNC(=O)CCCCC2SCC3NC(=O)NC32)P(=O)(Oc2ccccc2)Oc2ccccc2)cc1 (configuration not stated) | 31 µM
2 | CC[C@H](C)[C@H](NC(=O)[C@H](CCC(N)=O)NC(=O)[C@H](CCCCN)NC(=O)CCSSCCC(=O)NCCNC(=O)CCCCC1SCC2NC(=O)NC21)C(=O)N[C@H](C(=O)N[C@@H](CC(N)=O)C(=O)N[C@@H](CCSC)C(=O)N[C@@H](Cc1c[nH]c2ccccc12)C(=O)N[C@@H](CCC(N)=O)C(=O)N[C@@H](CCC(=O)O)C(=O)N[C@H](C(=O)NCC(=O)NC(c1ccc(C(=N)N)cc1)P(=O)(Oc1ccccc1)Oc1ccccc1)C(C)C)[C@@H](C)CC (some centres not stated) ([Mpa](X1)KQIINMWQEVG-X2) | 30 µM
